The values below are quoted from earlier work in patent US20100178364A1, “Dietary supplements against latent foreign DNA” (priority 2009, published 2010).

Like-named read-outs stand apart in the source and are kept apart here.

For data set [1], the system named is EBV immediate-early protein Rta.
The subject of data set [2] is LANA-1, v-cyclin, and v-FLIP proteins. As to conditions: KSHV positive cells (BCBL-1, BC-3, BC-1) treated 2, 3, 6 days; effect reversible.
In a further data set the test system is LT1/LT2 promoter. As to conditions: BJAB cells, GA-treated vs untreated.
For data set [3] the following is noted: tested levels (3 and 4 mM).

As for `O=C(O[C@@H]1Cc2c(O)cc(O)cc2O[C@@H]1c1cc(O)c(O)c(O)c1)c1cc(O)c(O)c(O)c1` [EGCG, Epigallocatechin gallate], the “percentage of cells expressing Rta” value in data set [1] (TSA-treated P3HR1 cells, 100 mM EGCG) is 0.5%; in data set [1] (TSA-treated P3HR1 cells, EGCG), 9.8%.

On to `CC1(C)[C@@H](O[C@H]2O[C@H](C(=O)O)[C@@H](O)[C@H](O)[C@H]2O[C@@H]2O[C@H](C(=O)O)[C@@H](O)[C@H](O)[C@H]2O)CC[C@]2(C)[C@H]3C(=O)C=C4[C@@H]5C[C@@](C)(C(=O)O)CC[C@]5(C)CC[C@@]4(C)[C@]3(C)CC[C@@H]12` [GA, glycyrrhizic acid], for which the LANA-1 protein expression entry in data set [2] was “decreased”. In addition, the “LT1/LT2 promoter activity (luciferase expression)” value with LT1/LT2 promoter is “does not affect the LT1/LT2 promoter activity”. Besides, the toxicity entry in data set [3] is “not being toxic at the tested levels”. The “disruption of mitochondrial membranes / DNA condensation” value in the data set with KSHV-positive B cells (uninfected B cells) is recorded as “no disruptions of their mitochondrial membranes or DNA condensation”. Consider `CCCCCCCCCCCCCC(=O)O[C@@H]1[C@@H](C)[C@@]2(O)[C@@H](C=C(CO)C[C@]3(O)C(=O)C(C)=C[C@@H]23)[C@@H]2C(C)(C)[C@]12OC(C)=O` [TPA, 12-O-tetradecanoyl-phorbol-13-acetate, reference compound], for which the “disruption of mitochondrial membranes / DNA condensation” value with KSHV-positive B cells (TPA treatment (latent to lytic switch)) is reported as “did not disrupt the mitochondrial membranes or caused DNA condensation”. Regarding `CC(/C=C/C(=O)NO)=C\[C@@H](C)C(=O)c1ccc(N(C)C)cc1` [TSA, reference compound], the “percentage of cells expressing Rta” value in data set [1] (P3HR1 cells after TSA alone (lytic cycle activator)) was 23.4%. For `C[C@H]1[C@H](OC(=O)CCC(=O)O)O[C@@H]2O[C@@]3(C)CC[C@H]4[C@H](C)CC[C@@H]1[C@@]24OO3` [artesunate], the “viral decay T ½” value in the data set with CMV (CMV load kinetics during artesunate treatment, oral 100 mg/day) is 22 to 45.6 h. Also, in the data set on CMV (within 10 days), the hematopoiesis result is “improved”. `Nc1nc(O)c2ncn(COC(CO)CO)c2n1` [ganciclovir]: the “decrease of viral DNA load” value in the data set on CMV (by day 7 of treatment, one patient) is recorded as 1 log.
